How the values were obtained:
[1] = biological target: T1, human α-synuclein aggregates (Homo sapiens, UniProt P37840); experiment: Binding affinity of the compounds to α-synuclein aggregates (fluorescence method); conditions: fluorescence saturation binding; α-synuclein aggregates (PFFs) 3 μM; room temperature, 1 hour
T1 construct: made in house; host or cells: E. coli BL21 (DE3)
Method: α-synuclein monomers were prepared into a buffer solution containing 1×PBS, where the final protein concentration was 100 μM ([…]), and incubated in a 1000 rpm shaker at 37° C. for 7 days to obtain α-synuclein aggregates. The initial and final concentrations of the monomer protein were determined by the BCA method.
The prepared α-synuclein aggregates, also known as preformed fibrils (PFFs), are used for protein affinity testing, construction of cell model, and testing of the invention.
10 mM mother solution of DMSO was prepared from 1 mg of the compound, then diluted to 20 μM with PBS, and made gradient dilution 7 times (3× each dilution); 30 μL of test compound was added to the 384-well plate, following the experimental group was added to 30 μL α-synuclein aggregates (3 μM), and the control group was added to the same amount of PBS. After the 384-well plate was incubated shaking at 50 rpm at room temperature for 1 hour, the plate was taken out to detect the maximum absorption and emission wavelengths of the compound with an ELISA Microplate Reader, and the fluorescence values were detected at these wavelengths, too. The fluorescence changes in different concentrations of compounds were calculated using the experimental group data minus the control group data, and the protein-binding affinity of compounds was obtained using the Saturation binding module of GraphPad Prism.
The binding affinity of the Formula I compound to α-synuclein aggregates is determined by the above method, and the dissociation equilibrium constant Kd is shown in Table 1.

[2] = biological target: T2, α-synuclein aggregates in SH-SY5Y cells (Homo sapiens, UniProt P37840); experiment: Immunofluorescence imaging of SH-SY5Y cell model with α-synuclein aggregates (PFFs); format: cell-based; conditions: co-staining with α-synuclein antibody, compound 1 h at room temperature
T2 construct: made in house; host or cells: E. coli BL21 (DE3)
Method: SH-SY5Y cells belong to the SK—N—SH cell line and are a kind of human neuroblastoma cells. These cells can express a variety of important proteins of neurons, such as dopaminergic transporters, dopamine hydroxylase, and tyrosine hydroxylase, so they are often used in the study of the mechanism and pharmacodynamic evaluation of Parkinson's disease. The prepared α-synuclein aggregates (PFFs) are co-incubated with SH-SY5Y cells and endocytosed into cells after 12 hours through endocytosis. The cells were further incubated with α-synuclein antibodies and compounds successively, and observed by microscope after washing with PBS. The detailed operations are as follows.
SH-SY5Y cells were cultured in a high-glucose DMEM medium (containing 10% Gibco fetal bovine serum). After 5 times of resuscitation and passage, the cell state tended to be stable. Then PFFs was added to the medium and fluorescent staining was performed after 48 h. After sucked the cell culture solution and cleaned with PBS three times, 0.3% Triton X-100 was added and incubated for 10 min. After washing with PBS, 10% goat serum was added and closed for 1 h; After cleaning with PBS, primary antibody (1:1000, 610786, BD Biosciences) was added and incubated at 4° C. overnight. After cleaning with PBS, secondary antibodies (1:1000, goat-anti-rabbit Alex Fluor 594, and goat-anti-mouse Alex Fluor 488, Invitrogen) were added and incubated at room temperature for 2 h. Finally, the compound of the invention is added and incubated at room temperature for 1 h. After cleaning with PBS, the tablet is sealed and photographed by a laser confocal microscope.

[3] = Blood-brain barrier permeability test in rat; format: in vivo; conditions: brain homogenate / blood supernatant after centrifugation, intravenous, SD rats, 5 mg/kg tail vein, 20 min after administration, LC-MS/MS, >0.3 indicates good blood-brain barrier penetration, read-out: brain/blood ratio
Method: The compound of the invention is injected into a rat tail vein to determine the blood-brain barrier permeability in vivo according to the following method.
Dissolve the tested compound in DMSO, and add castor oil and PBS for dilution (DMSO:castor oil:PBS=1:1:8). SD rats were weighed and given 5 mg/kg in the tail vein. 500 μL of blood was taken 20 min after administration after anesthetized with isoflurane. Cardiac perfusion was performed with 200 mL PBS and stopped until the organ faded, following brain tissue was got out and washed with PBS.
After centrifuging the extracted blood at 9000 rpm for 5 min, 200 μL supernatant was taken, and added 800 μL methanol. After centrifuging at 14000 rpm for 10 min, the supernatant was taken and filtered through a 0.22 μm filter membrane and stored at −80° C. for use. 2 mL PBS and 2 mL methanol were added to about 0.5 g of brain tissue to make a tissue homogenization, and then 1 mL homogenate was taken out and centrifuged at 14,000 rpm for 10 min after 2 mL methanol was added, 1 mL supernatant was taken through 0.22 μm filter membrane and stored at −80° C. for use. The concentration of compounds in the above supernatant of blood and brain homogenate were checked by LC-MS/MS, respectively.
A brain/blood ratio of <0.1, 0.1-0.3, or >0.3 indicates blood-brain barrier penetration of weak, moderate, or good, respectively. […] Since all the compounds of the invention have similar structures and their clogP values are mostly between 1.0 and 3.0, it can be predicted that other compounds of the invention should also have acceptable blood-brain barrier permeability.

[4] = biological target: T3, Lewy bodies and Lewy neurites (α-synuclein lesions) (Homo sapiens, UniProt P37840); experiment: Fluorescence staining of brain slices from patients of dementia with Lewy body (DLB)
T3 construct: from tissue; host or cells: human DLB patient amygdala, fresh frozen sections
Method: Brain slices from patients of dementia with Lewy bodies were taken from the amygdala of a deceased person in stage 2 of dementia with Lewy bodies. Frozen sections of the amygdala with rich α-synuclein were performed with a thickness of 20 μm.
(§1) Compound I-15 was diluted to 30 μM with PBS solution containing 50% EtOH, following incubated with the fresh frozen brain sections at room temperature for 30 minutes, then washed with 50% ethanol solution for 5 minutes and ultra-pure water twice for 3 minutes each time in sequence. After the sections were buried with an embedding agent (VECTASHIELD H-1000, Vector Laboratories), images of the lesion accumulation area on the sections were obtained by fluorescence microscopy. Analysis software (Image J) was used to quantify the fluorescence radiance of both the lesion area and the area of the non-forming lesion (background) to evaluate binding selectivity.

[5] = tested on: Aβ plaques and Tau neurofibrillary tangles; experiment: Fluorescence staining of brain slices from patients with Alzheimer's disease (AD); design: species or system human; conditions: AD patient superior temporal gyrus sections, compound 30 μM
Method: as §1
The dewaxed brain tissue was fixed in a 10% neutral buffer of formalin solution, embedded with paraffin, and then sliced with a thickness of 6 μm. The staining method is the same as the above method for DLB patients.

SMILES | Kd [1] | binding to α-synuclein aggregates in SH-SY5Y cells (immunofluorescence, FIG. 1) [2] | Kp at 20 min [3] | other results
CN(C)c1ccc(/C=C/c2nc3cc(F)ccc3n(Cc3ccccn3)c2=O)cc1 [I-1] | 0.1 to 0.2 µM |  |  | 
CN(C)c1ccc(/C=C/c2nc3cc(F)ccc3n(Cc3cccnc3)c2=O)cc1 [I-2] | 0.5 to 1 µM |  |  | 
CN(C)c1ccc(/C=C/c2nc3cc(F)ccc3n(Cc3ccncc3)c2=O)cc1 [I-3] | 0.5 to 1 µM |  |  | 
CN(C)c1ccc(/C=C/c2nc3cc(OCCF)ccc3n(Cc3ccccn3)c2=O)cc1 [I-6] | 0.2 to 0.5 µM | excellent binding affinity and specificity | ≥ 1 | 
CN(C)c1ccc(/C=C/c2nc3cc(OCCF)ccc3n(Cc3cccnc3)c2=O)cc1 [I-9] | 0.5 to 1 µM |  |  | 
CN(C)c1ccc(/C=C/c2nc3cc(OCCF)ccc3n(Cc3ccncc3)c2=O)cc1 [I-12] | 0.2 to 0.5 µM | excellent binding affinity and specificity | ≥ 1 | 
CN(C)c1ncc(/C=C/c2nc3cc(OCCF)ccc3n(Cc3ccccn3)c2=O)s1 [I-15] | 0.1 to 0.2 µM | excellent binding affinity and specificity | ≥ 1 | binding affinity to α-synuclein lesions (staining of Lewy bodies and Lewy neurites, FIG. 2) ([4]; DLB patient amygdala frozen sections, compound 30 μM, 30 minutes): strong binding affinity; binding to α-synuclein pathological tissue compared with Aβ and Tau pathological tissue (selectivity) ([4]; DLB versus AD brain slices, FIG. 2 and FIG. 3): significantly stronger; binding affinity to Aβ and Tau histology (FIG. 3) [5]: very weak; binding to Tau neurofibrillary filaments (FIG. 3) [5]: did not bind

— patent publication US20260207795A1, “SMALL MOLECULE TRACERS BINDING TO ALPHA-SYNUCLEIN AGGREGATES AND THEIR USES” (Fudan University, priority 2021, published 2026)
